From patent publication US9670482B2, “Multispecific peptides” (BICYCLE THERAPEUTICS LIMITED, priority 2009, dated 2017)
pIC50, pKd: −log10 of the molar value. Where two headings read alike, the source gives them in different places. Residues, ends and D or L forms follow the SMILES beside them. No end group written: not given here.

Experiments:
[1] = molecular target: bovine serum albumin (BSA) (Bos taurus, UniProt P02769); experiment: Fluorescence anisotropy titration with BSA
Source text: For determining the affinity constant (Kd) of a fluorophore to target protein, we chose fluorescence anisotropy titrations.
Excitation was specific for coumarin (328 nm), and emission at 393 nm.
To determine whether a neighbouring group (here, Gly) on Fmoc affects binding to BSA, a similar experiment was run with Fmoc-Gly-OH (Nova Biochem). The intrinsic fluorescing properties of Fmoc were used for the anisotropy experiments.
To determine whether a neighbouring hydrophobic bulky group has an enhancing or adverse effect on BSA binding, Fmoc-Phe-OH was tested as above.
The solid phase resin employed was PAL-PEG-PS from Applied Biosystems. […] All peptides were capped with an N-terminal Fmoc, and a C-terminal amide (NH2). After cleavage, peptides were lyophilised, and solubilised in 5 mL of DMF. 100 μl of this was loaded onto an analytical C18 column using a Waters HPLC, using methanol and water (both in the presence of 0.1% TFA) as solvents. […] The peptide concentration in the cuvette was 200 nM.
Excitation was at 299 nm (to minimise Trp absorption), and emission at 320 nm. Slit widths were at 5 and 12 nm, respectively.
Peptide concentrations were estimated by the absorbance at 299 nm, using the extinction coefficient of 4700/M/cm. Excitation was at 299 nm, and emission was set to 320 nm, at slit widths of 5 and 12 nm, respectively.

[2] = molecular target: Human Serum Albumin (HSA) (Homo sapiens, UniProt P02768); experiment: Fluorescence anisotropy titration with HSA; type: binding; conditions: 200 nM fluorophore; Hill equation; Kd cannot be determined accurately
Human Serum Albumin (HSA), sequence (P02768 25-609): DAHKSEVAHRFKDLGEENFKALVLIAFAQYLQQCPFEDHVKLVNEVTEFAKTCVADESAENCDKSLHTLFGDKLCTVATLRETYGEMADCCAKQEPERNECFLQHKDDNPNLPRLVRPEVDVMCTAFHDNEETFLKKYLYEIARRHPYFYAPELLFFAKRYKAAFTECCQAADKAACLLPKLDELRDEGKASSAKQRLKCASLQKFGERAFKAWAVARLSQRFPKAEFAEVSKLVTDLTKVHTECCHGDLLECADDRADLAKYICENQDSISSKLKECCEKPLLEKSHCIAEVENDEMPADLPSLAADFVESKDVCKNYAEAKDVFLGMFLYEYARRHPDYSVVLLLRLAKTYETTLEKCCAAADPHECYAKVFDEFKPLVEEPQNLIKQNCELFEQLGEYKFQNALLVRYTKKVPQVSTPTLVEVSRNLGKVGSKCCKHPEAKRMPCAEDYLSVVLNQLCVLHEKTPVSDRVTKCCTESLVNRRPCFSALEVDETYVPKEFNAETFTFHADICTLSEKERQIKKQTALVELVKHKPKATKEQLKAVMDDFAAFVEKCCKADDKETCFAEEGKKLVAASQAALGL

[3] = molecular target: T1, MDM2 (res 2-125) (Homo sapiens, UniProt Q00987); experiment: Fluorescence anisotropy titration with MDM2; type: binding
T1 construct: made in house
T1 sequence (Q00987 2-125): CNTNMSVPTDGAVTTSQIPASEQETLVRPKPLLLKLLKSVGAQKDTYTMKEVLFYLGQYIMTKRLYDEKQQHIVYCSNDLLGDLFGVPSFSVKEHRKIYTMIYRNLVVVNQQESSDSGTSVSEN
Description: Titration experiments were run on a Horiba Jobin Yvon fluorimeter equipped with the Hamilton Microlab titrator controlled by laboratory software. The λex and λem used were 295 nm and 350 nm, respectively. The slit widths for excitation and emission were 5 nm and 15 nm and the integration time 10 s was used for each measurement. The intrinsic fluorescence of tryptophan in peptides 10, 48 was used to measure their binding affinity for MDM2 (res 2-125). The experiments were performed at 23 C.° in PBS, 5 mM DTT. Usually 250 ul of MDM2 (150 uM) was titrated into 1.2 ml of peptide (1 uM). Titration data were analyzed with a standard 1:1 binding model by using the quadratic solution to the equilibrium Kd=[A][B]/[AB]. […] The fitting equation contained an extra term to account for linear drift.
Mdm2 binds the complete PEP48 peptide with good affinity. We now determined whether Mdm2 binding is still functional within the Fmoc-Trp-linker-bicyclic derivative. 250 μL of 18.8 μM Mdm2 (expressed and purified as described in Teufel et al, PNAS 2007) was titrated into 1.2 ml of 500 nM peptide. A strong binding event occurred (Kd<1 μM), however, the data could not be fitted as the Kd was too far below the concentration of peptide employed in the experiment (FIG. 9). Lower concentrations of peptide could not be used due to technical limitations. Accurate determination of dissociation constants of this peptide to Mdm2 will require a better fluorophore than Fmoc (see above), or different methodologies such as isothermal titration calorimetry (ITC).

[4] = molecular target: T2, Kallikrein (Homo sapiens, UniProt P03952); experiment: Kallikrein assays (Z-Phe-Arg-amc substrate); type: biochemical
T2 construct: purchased Sigma Aldrich
T2 sequence (P03952 20-638): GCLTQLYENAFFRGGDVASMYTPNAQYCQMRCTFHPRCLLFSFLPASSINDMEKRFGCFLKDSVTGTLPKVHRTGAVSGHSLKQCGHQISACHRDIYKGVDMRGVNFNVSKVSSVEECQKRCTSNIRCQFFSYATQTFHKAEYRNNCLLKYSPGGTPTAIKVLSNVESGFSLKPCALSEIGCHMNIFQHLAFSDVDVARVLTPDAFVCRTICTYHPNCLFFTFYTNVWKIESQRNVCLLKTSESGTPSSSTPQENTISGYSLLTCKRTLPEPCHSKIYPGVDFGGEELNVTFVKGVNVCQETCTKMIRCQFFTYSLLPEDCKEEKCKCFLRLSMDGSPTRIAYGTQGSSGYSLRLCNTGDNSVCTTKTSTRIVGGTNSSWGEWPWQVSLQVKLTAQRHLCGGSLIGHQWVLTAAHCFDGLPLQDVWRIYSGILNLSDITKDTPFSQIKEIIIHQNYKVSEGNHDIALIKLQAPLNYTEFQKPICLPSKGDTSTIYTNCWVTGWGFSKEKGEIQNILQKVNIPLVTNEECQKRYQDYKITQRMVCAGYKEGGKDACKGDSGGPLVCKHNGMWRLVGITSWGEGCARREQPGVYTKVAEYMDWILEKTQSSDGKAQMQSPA
Description: Enzymes were purchased from Sigma Aldrich and substrates from Bachem A G. The assay buffer is composed of 10 mM Tris pH 7.4, 150 mM NaCl, 10 mM MgCl2, 1 mM CaCl2, 0.1% BSA, 0.01% Triton X100 and 5% DMSO. Enzymes are incubated with inhibitors for 30 minutes at RT prior to addition of substrate. All experiments were recorded at 30° C. for 90 minutes.
Assays were performed on a BMG Pherastar plate reader at wavelengths of exc/em 350/450 nm. Kallikrein was bought as a solution of 1080 μg/mL and diluted to a working concentration of 0.3 nM in assay buffer. Substrate Z-Phe-Arg-amc was solubilised at the stock concentration of 10 mM in DMSO and diluted to a working concentration of 300 μM with assay buffer. Inhibitors were solubilised in assay buffer to a stock concentration of 60 μM. 50 μL of each reagent is introduced in wells for a final volume of 150 μL per well. Final concentration of kallikrein in assay is 0.1 nM and substrate is 100 μM.
Final concentrations of inhibitors were: 0.5 nM, 1 nM, 2 nM, 5 nM, 8 nM, 10 nM, 20 nM, 50 nM, 80 nM, 100 nM, 200 nM, 500 nM, 800 nM, 1 μM, 2 μM, 5 μM, 8 μM, 10 μM and 20 μM. The initial rate of the reaction is obtained by plotting fluorescence=f (time) data and by fitting a linear trendline for each concentration of inhibitor. The inhibition curves are obtained by plotting initial rate=f ([I]) and IC50 values can be evaluated.

[5] = Solubility in water; type: physicochemical
[6] = system: HCT116 cells; experiment: Live cell imaging of peptide uptake, HCT116; type: cell-based, Human; conditions: fluorescein-labelled TBMB conjugates, 10 μM
Description: Two cell lines, HeLa and HCT116, were used for these experiments. HeLa is a Human cervix epitheloid carcinoma and HCT116 is a Human colon carcinoma. Both cell types are widely available; for instance, HeLa cells are available from the UK HPA under catalogue number 93021013. HCT116 cells are available from the UK HPA under catalogue number 91091005.
Cells were seeded in Lab-Tek chambered borosilicate coverglass (Nunc). After culturing for 48 hrs (cells reached 40-60% confluency), media was removed and a fresh media supplemented with 10 μM of peptides was added to the cells. Cells were cultivated for a further 3.5 hrs or 24 hrs. At the end of the incubation time cells were washed 3×DMEM and finally resuspended in DMEM complete media supplemented with 10 mM HEPES buffer. Live cell imaging was performed on a laser scanning microscope (LSM 710, Zeiss), differential interference contrast (DIC) and fluorescent images were taken.
The cells were cultured in Dulbecco's Modified Eagle's Medium (DMEM, GIBCO) and supplemented with 10% (v/v) of heat-inactivated fetal bovine serum, 2 mM L-glutamine, 10 U/ml penicillin, and 100 ug/ml streptomycin (DMEM complete media) at 37° C. in a 5% CO2 atmosphere.

bovine serum albumin (BSA), sequence (P02769 25-607): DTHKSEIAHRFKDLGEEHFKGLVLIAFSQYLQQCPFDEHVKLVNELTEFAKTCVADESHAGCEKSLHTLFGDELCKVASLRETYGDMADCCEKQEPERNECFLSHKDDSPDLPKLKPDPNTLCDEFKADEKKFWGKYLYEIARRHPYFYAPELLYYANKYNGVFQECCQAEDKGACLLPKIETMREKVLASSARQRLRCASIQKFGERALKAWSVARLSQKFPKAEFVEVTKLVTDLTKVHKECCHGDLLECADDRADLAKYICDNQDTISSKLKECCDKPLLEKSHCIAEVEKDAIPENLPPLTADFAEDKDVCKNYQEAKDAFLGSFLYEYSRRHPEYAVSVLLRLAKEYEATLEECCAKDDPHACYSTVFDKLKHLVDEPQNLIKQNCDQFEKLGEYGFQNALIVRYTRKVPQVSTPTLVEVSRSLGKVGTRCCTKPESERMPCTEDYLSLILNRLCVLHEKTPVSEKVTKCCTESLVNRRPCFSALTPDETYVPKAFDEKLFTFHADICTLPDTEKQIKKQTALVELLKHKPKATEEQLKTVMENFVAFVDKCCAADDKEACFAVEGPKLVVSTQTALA

`O=C(NC(Cc1ccccc1)C(=O)O)OCC1c2ccccc2-c2ccccc21` (centres unmarked) [Fmoc-Phe-OH] gave a pKd [1] of roughly 7.00 and a pKd [2] of roughly 8.00.

With `CC(C)[C@@H]1NC(=O)[C@@H](NC(=O)[C@H](C)NC(=O)CNC(=O)CNC(=O)CNC(=O)[C@H](Cc2c[nH]c3ccccc23)NC(=O)OCC2c3ccccc3-c3ccccc32)CSCc2cc3cc(c2)CSC[C@H](NC(=O)[C@H]([C@@H](C)O)NC(=O)[C@H](Cc2c[nH]c4ccccc24)NC(=O)CNC(=O)[C@H](Cc2ccccc2)NC(=O)[C@H](CCCNC(=N)N)NC1=O)C(=O)N[C@@H](CO)C(=O)N[C@@H](CC(=O)O)C(=O)N[C@@H](CCCNC(=N)N)C(=O)N[C@@H](Cc1ccccc1)C(=O)N[C@@H](CCCNC(=N)N)C(=O)N[C@@H](CC(N)=O)C(=O)N[C@H](C(=O)NCC(N)=O)CSC3` [FmocPEP48L1-PK15L1 bicyclic] (HELM PEPTIDE1{[O=C(OCC1c2ccccc2-c2ccccc21)[*:2]].W.G.G.G.A.C.V.R.F.G.W.T.C.S.D.R.F.R.N.C.G.[am]}|CHEM1{[c1c(C[*:1])cc(C[*:3])cc1C[*:2]]}$PEPTIDE1,CHEM1,7:R3-1:R1|PEPTIDE1,CHEM1,14:R3-1:R2|PEPTIDE1,CHEM1,21:R3-1:R3$$$V2.0) the pKd [3] was greater than 6.00, the pKd ([3]; read-out: Kd for Mdm2, 18.8 μM Mdm2 titrated into 500 nM peptide, data could not be fitted (FIG. 9)) was greater than 6.00 and the pIC50 ([4]; IC50 for inhibition of kallikrein activity, 0.1 nM kallikrein, 100 μM substrate, 30° C.) was 4.77. The pIC50 ([4]; IC50 for inhibition of kallikrein, preliminary experiment, restated in Example 3) was roughly 4.77, the pKd ([1]; Kd for BSA, fluorescence anisotropy in PBS) was roughly 7.22 and the solubility in water [5] was “not well soluble in water”.

Work on `CC(C)[C@@H]1NC(=O)[C@@H](NC(=O)[C@@H](N)CO)CSCc2cc3cc(c2)CSC[C@H](NC(=O)[C@H]([C@@H](C)O)NC(=O)[C@H](Cc2c[nH]c4ccccc24)NC(=O)CNC(=O)[C@H](Cc2ccccc2)NC(=O)[C@H](CCCNC(=N)N)NC1=O)C(=O)N[C@@H](CC(=O)O)C(=O)N[C@@H](CC(N)=O)C(=O)N[C@@H](CO)C(=O)N[C@@H](Cc1c[nH]c2ccccc12)C(=O)N[C@@H](Cc1c[nH]cn1)C(=O)NCC(=O)N[C@H](C(=O)N[C@@H](CCCCN)C(=O)NCC(=O)O)CSC3` [PEP48] (HELM PEPTIDE1{S.C.V.R.F.G.W.T.C.D.N.S.W.H.G.C.K.G}|CHEM1{[c1c(C[*:1])cc(C[*:3])cc1C[*:2]]}$PEPTIDE1,CHEM1,2:R3-1:R1|PEPTIDE1,CHEM1,9:R3-1:R2|PEPTIDE1,CHEM1,16:R3-1:R3$$$V2.0) yielded a pKd [3] of 6.10 to 6.30.

For “Pep48-D3: SCVRFGWTCDNSWHGCKG with C-terminal DDD (control), N-terminal fluorescein or methoxy-coumarin (SCVRFGWTCDNSWHGCKGDDD; cysteine pairing not given here; also: N-terminal fluorescein or methoxy-coumarin)”, the “cell penetration (fluorescent staining within the cell)” value [6] was “not”.

For “Pep48-R3: SCVRFGWTCDNSWHGCKG with C-terminal RRR, N-terminal fluorescein or methoxy-coumarin (SCVRFGWTCDNSWHGCKGRRR; cysteine pairing not given here; also: N-terminal fluorescein or methoxy-coumarin)”, the “cell penetration (fluorescent staining within the cell)” value [6] was “fluorescent staining within the cell”.
